What was measured:
Format in all cases: in vivo
[1] = tested on: spring wheat (Scotia variety); experiment: Spring wheat (Scotia variety) field trial, Arnprior, Ontario: spray at late booting stage, yield; conditions: EBR 0.05 ppm applied with Ethephon 0.18%
Protocol: A spring wheat (Scotia variety) trial is carried out in Arnprior, Ontario, Canada. Typically, Ethephon alone has been used to reduce lodging in wheat. However, it can lead to the loss of yield, especially when it is sprayed at late booting stage.

[2] = tested on: table grape (Flame variety); experiment: Table grape (Flame variety) field trial, Coachella, Calif.: spray at fruit size 12 mm; conditions: sprayed at fruit size 12 mm, GA3 2.00 ppm (EBR 0.05 ppm in the combination), 100 gal water per acre
Text: A table grape (Flame variety) trial was set up in Coachella, Calif. Typically, GA3 alone has been used as a growth stimulator on table grape at sizing (berry size 10-14 mm), but it can cause uneven ripening and size of berry. [table]

[3] = tested on: table grape (Thomson green seedless variety); experiment: Table grape (Thomson green seedless variety) field trial, Mecca, Calif.: spray at fruit size 12 mm; conditions: sprayed at fruit size 12 mm, GA3 4.0 ppm (EBR 0.1 ppm in the combination)
Protocol: A table grape (Thomson green seedless variety) trial is carried out in Mecca, Calif. Typically, GA3 alone has been used as growth stimulator on table grape at sizing (berry size 10-14 mm), but it can cause uneven ripening and size of berry. [table]

Cherry (Bing variety) = Cherry (Bing variety) field trials, Lodi, Calif.: growth regulation effects, spray at straw color; conditions: sprayed at straw color, GA3 4.0 ppm (EBR 0.1 ppm in the combination)
Protocol: Two Cherry (Bing variety) trials are conducted in Lodi, Calif. to compare growth regulation effects of Gibberellic acid (GA3) and Composition of GA3 and 24-epibrassinolide (EBR). Typically, GA3 alone is commonly used on cherry at straw color for the elongation of storage life, but the application of GA3 often causes uneven ripening. [table]

Row | Structure (SMILES) | Effect of EBR on loss of yield caused by Ethephon [1] | Fruits picked [2] | Number of picks needed [2] | Ripening / uniformity of color and size [3] | Fruits picked ([3]; 100 gal water per acre) | Ripening / uniformity of color and size (Cherry (Bing variety)) | Fruits picked (Cherry (Bing variety); 100 gal water per acre) | Number of picks needed (Cherry (Bing variety); 100 gal water per acre)
1 | CC(C)[C@@H](C)[C@@H](O)[C@H](O)[C@@H](C)[C@H]1CC[C@H]2[C@@H]3COC(=O)[C@H]4C[C@H](O)[C@H](O)C[C@]4(C)[C@H]3CC[C@]12C [EBR, 24-epibrassinolide] | save/reverse the loss of yield |  |  |  |  |  |  | 
2 | C=C1C[C@]23C[C@@]1(O)CC[C@H]2[C@@]12C=C[C@H](O)[C@@](C)(C(=O)O1)[C@H]2[C@@H]3C(=O)O [GA3, Gibberellic acid] |  | Picked 90% of fruits | four | the uneven ripening | Picked 85% of fruits | the uneven ripening | Picked 85% of fruits | four

From patent US20210251229A1, “PLANT REGULATOR COMPOSITIONS” (Suntton Company Limited, priority 2020, published 2021)
